The target of assay [1] is T1, Adenosine receptor A1 (Rattus norvegicus) (UniProt P25099).
T1 sequence (whole entry): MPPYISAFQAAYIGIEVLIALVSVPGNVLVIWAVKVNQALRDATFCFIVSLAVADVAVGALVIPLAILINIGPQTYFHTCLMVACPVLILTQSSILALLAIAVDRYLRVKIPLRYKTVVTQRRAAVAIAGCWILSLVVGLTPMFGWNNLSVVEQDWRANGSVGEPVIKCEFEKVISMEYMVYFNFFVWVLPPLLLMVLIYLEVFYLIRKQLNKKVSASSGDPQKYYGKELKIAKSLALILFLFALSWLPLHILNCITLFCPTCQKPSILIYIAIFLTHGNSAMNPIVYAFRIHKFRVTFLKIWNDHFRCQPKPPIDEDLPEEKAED
The assay is described as follows: Displacement of [3H]DPCPX from rat brain adenosine A1 receptor up to […].

In a further assay the target is T2, Adenosine receptor A1 (Rattus norvegicus, UniProt P25099).
T2 sequence (P25099 whole entry): T1 sequence (whole entry)
Put plainly: Displacement of [3H]DPCPX from rat brain adenosine A1 receptor.

Molecules are shown by their SMILES. Calls of active or inactive are those of the source. No cut-off for these calls is given here.

Consider `C=C1CC[C@@H]2O[C@@]2(C)CC[C@@H](C(C)C)/C=C/[C@](C)(O)CC[C@@H]1O`, for which, in assay [1], the outcome was inactive. On Adenosine receptor A1, `CC(C)[C@H]1/C=C/[C@](C)(O)C/C=C/[C@@](C)(O)CC[C@@H]2O[C@@]2(C)CC1` displayed a concentration for half-maximal inhibition (IC50) of 300 µM. On the same count and under the same terms, to `CC(C)[C@H]1/C=C/[C@](C)(O)C/C=C/[C@](C)(O)CC[C@@H]2O[C@@]2(C)CC1` belongs 300 µM. On to `C=C1CC[C@@H]2O[C@@]2(C)CC[C@@H](C(C)C)/C=C/[C@](C)(O)CC[C@H]1O`, for which the result in assay [1] was inactive.

(Values after ChEMBL document CHEMBL1150612, “Naturally occurring cembranes from an Australian sarcophyton species” (J Nat Prod, 2002).)
